What was measured:
MER = target: T1, MER (Homo sapiens, UniProt Q12866); assay: Kinase panel profiling at 1 µmol/L (mobility shift assay, Carna); type: biochemical; details: 1 µmol/L of BTK inhibitor
T1 construct: purchased Carna Biosciences
T1 sequence (Q12866 21-999): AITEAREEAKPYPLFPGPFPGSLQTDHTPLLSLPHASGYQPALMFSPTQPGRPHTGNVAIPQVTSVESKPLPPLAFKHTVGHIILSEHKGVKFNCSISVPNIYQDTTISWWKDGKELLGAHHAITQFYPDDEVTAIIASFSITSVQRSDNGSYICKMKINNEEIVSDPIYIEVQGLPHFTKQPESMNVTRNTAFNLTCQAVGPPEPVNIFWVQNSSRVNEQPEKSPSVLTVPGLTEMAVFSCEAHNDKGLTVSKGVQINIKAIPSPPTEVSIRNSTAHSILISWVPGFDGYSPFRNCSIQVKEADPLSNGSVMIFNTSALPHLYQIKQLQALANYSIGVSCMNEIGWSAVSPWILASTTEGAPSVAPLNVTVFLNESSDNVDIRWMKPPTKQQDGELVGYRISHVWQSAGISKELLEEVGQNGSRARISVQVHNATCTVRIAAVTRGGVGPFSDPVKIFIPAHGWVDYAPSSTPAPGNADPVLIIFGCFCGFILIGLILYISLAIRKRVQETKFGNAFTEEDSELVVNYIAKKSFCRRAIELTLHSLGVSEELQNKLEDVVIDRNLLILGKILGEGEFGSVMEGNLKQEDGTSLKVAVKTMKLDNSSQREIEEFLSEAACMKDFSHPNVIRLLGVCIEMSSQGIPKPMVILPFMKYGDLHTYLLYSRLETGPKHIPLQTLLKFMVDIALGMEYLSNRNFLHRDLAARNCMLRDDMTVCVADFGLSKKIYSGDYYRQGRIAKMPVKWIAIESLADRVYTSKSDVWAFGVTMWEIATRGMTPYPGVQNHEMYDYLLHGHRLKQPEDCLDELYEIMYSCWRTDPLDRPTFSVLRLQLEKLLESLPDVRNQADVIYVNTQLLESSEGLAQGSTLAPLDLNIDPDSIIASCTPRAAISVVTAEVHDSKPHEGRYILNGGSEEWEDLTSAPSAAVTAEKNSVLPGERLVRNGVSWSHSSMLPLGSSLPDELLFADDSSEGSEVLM

AurC = target: T2, AurC (Homo sapiens, UniProt Q9UQB9); assay: as above; type: biochemical; details: 1 µmol/L of BTK inhibitor
T2 construct: purchased Carna Biosciences
T2 sequence (Q9UQB9 1-309): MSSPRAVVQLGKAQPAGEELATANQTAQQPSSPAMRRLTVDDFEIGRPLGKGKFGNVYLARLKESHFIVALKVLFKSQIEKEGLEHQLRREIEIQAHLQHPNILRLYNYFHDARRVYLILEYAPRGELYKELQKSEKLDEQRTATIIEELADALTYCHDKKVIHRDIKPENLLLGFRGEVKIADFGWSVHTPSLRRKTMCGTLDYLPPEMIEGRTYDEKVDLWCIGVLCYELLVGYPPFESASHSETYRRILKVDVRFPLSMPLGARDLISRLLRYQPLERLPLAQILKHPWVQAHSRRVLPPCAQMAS

CDK4/CycD3 = target: T3, CDK4/CycD3 (Homo sapiens, UniProt P11802); assay: as above; type: biochemical; details: 1 µmol/L of BTK inhibitor
T3 construct: purchased Carna Biosciences
T3 sequence (P11802 whole entry): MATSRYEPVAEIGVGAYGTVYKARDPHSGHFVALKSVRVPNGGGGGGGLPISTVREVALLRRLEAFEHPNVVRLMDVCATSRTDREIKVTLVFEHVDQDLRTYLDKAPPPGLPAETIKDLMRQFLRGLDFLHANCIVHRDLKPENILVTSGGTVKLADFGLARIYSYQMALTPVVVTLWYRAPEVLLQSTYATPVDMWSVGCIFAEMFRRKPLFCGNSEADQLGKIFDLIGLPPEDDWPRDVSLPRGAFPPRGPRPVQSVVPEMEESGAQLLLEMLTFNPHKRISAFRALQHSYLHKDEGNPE
T3 sequence (P30281 whole entry partner): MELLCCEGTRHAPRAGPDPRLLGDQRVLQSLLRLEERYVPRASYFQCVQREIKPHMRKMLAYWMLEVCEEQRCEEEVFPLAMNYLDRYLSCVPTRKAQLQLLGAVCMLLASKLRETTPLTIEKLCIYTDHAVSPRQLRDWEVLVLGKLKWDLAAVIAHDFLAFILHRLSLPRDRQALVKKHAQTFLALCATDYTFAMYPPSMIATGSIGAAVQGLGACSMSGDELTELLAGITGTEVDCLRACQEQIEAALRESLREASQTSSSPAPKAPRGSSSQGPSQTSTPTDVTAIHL

CDK5/p25 = target: T4, CDK5/p25 (Homo sapiens, UniProt Q00535); assay: as above; type: biochemical; details: 1 µmol/L of BTK inhibitor
T4 construct: purchased Carna Biosciences
T4 sequence (Q00535 whole entry): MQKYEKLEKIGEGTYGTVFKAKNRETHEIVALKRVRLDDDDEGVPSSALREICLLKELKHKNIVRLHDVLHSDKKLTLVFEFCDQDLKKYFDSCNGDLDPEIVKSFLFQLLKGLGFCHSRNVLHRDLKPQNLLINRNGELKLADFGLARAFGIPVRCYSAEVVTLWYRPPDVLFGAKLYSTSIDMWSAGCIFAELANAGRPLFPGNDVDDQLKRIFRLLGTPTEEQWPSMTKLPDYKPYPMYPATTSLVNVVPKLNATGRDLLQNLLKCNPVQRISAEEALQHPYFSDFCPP
T4 sequence (Q15078 99-307 partner limits assumed): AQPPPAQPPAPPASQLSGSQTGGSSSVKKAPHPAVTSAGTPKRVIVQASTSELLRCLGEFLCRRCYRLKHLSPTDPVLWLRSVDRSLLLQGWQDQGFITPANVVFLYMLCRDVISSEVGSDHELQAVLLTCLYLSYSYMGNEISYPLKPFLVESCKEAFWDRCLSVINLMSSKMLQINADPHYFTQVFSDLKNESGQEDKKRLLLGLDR

NEK9 = target: T5, NEK9 (Homo sapiens, UniProt Q8TD19); assay: as above; type: biochemical; details: 1 µmol/L of BTK inhibitor
T5 construct: purchased Carna Biosciences
T5 sequence (Q8TD19 1-979): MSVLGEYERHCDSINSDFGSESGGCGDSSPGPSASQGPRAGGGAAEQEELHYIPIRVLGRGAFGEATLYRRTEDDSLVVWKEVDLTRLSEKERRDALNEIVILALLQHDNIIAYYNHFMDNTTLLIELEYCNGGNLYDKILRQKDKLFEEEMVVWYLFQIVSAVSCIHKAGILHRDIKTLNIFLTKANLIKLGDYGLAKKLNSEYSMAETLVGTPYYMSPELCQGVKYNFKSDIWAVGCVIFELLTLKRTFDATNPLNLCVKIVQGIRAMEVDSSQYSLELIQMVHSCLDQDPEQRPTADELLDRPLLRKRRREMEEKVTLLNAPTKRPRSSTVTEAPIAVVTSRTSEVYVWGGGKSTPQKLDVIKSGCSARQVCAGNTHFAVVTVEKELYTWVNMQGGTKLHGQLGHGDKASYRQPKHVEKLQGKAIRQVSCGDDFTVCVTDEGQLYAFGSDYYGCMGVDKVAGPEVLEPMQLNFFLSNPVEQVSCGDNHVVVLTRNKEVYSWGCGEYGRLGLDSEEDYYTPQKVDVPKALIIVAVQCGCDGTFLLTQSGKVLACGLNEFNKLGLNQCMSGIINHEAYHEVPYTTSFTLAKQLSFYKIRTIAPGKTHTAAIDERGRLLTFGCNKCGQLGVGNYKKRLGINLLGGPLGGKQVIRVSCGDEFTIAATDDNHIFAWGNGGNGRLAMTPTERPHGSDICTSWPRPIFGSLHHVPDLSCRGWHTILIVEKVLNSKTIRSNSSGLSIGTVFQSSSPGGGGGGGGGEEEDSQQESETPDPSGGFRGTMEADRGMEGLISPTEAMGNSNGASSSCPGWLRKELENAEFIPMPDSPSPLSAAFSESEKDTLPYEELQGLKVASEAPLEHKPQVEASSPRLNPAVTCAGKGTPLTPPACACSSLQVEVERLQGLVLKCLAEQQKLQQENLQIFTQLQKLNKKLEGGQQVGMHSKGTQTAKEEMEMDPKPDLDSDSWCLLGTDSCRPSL

SGK2 = target: T6, SGK2 (Homo sapiens, UniProt Q9HBY8); assay: as above; type: biochemical; details: 1 µmol/L of BTK inhibitor
T6 construct: purchased Carna Biosciences
T6 sequence (Q9HBY8 1-367): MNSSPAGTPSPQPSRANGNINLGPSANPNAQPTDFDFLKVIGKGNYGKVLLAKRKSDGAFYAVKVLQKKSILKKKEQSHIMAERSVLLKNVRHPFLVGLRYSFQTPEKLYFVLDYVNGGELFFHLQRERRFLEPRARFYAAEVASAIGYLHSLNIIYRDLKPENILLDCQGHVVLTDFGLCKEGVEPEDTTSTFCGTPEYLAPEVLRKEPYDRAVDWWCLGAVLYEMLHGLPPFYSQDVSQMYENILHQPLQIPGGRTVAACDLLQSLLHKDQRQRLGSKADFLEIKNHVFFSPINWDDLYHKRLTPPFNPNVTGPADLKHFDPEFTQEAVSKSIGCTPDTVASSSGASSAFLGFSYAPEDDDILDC

SRPK1 = target: T7, SRPK1 (Homo sapiens, UniProt Q96SB4); assay: as above; type: biochemical; details: 1 µmol/L of BTK inhibitor
T7 construct: purchased Carna Biosciences
T7 sequence (Q96SB4 whole entry): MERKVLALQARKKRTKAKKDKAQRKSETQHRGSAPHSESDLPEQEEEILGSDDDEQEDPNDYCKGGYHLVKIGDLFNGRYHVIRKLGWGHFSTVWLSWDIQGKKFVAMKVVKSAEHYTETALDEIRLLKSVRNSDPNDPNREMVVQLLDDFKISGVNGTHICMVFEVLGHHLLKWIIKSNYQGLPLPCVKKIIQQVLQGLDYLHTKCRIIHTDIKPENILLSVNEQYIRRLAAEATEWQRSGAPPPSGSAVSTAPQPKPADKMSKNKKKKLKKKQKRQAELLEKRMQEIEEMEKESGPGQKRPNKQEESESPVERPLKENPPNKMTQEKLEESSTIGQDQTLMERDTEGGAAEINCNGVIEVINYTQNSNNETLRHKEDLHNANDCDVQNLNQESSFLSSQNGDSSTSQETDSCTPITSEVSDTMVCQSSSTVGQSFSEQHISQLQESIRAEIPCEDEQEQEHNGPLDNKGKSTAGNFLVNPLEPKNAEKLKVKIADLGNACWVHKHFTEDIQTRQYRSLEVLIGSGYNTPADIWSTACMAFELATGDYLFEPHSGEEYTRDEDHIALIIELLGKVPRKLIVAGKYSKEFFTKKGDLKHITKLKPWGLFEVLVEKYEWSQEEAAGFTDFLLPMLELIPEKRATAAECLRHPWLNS

ERK2 = ERK2 (Homo sapiens, UniProt P28482); assay: Kinase enzyme activity assay (mobility shift assay, Carna); details: for Percentage inhibition of kinase enzyme activity: Erk2, 1 µmol/L of BTK inhibitor
ERK2, sequence (P28482 whole entry): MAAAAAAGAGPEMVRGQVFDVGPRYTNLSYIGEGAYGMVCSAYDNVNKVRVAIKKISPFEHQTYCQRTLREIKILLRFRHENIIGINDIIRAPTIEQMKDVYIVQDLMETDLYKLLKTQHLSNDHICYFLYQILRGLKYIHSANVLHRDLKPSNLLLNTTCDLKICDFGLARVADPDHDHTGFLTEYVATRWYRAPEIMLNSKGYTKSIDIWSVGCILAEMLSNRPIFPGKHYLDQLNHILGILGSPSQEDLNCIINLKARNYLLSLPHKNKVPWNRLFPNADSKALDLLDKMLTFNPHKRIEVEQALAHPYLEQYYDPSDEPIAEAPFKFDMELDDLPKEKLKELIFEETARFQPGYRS

With `O=C(c1ccc(Oc2ccccc2)cc1Cl)c1c[nH]c2ncnc(N[C@@H]3CC[C@@H](CO)OC3)c12` [nemtabrutinib] the “Percentage inhibition of kinase enzyme activity” value (“Percentage inhibition” below) (MER) was 29.53%, the “Percentage inhibition” value (AurC) was 65.10% and the “Percentage inhibition” value (CDK4/CycD3) was 0.33%. The “Percentage inhibition” value (CDK5/p25) was -18.80%, the “Percentage inhibition” value (NEK9) was -0.83% and the “Percentage inhibition” value (SGK2) was 2.52%. For the same molecule, the “Percentage inhibition” value (SRPK1) was 6.73%, the IC50 (ERK2) was 0.505 µM and the “Inhibition of ERK2” value (ERK2) was “did not inhibit”. The “Percentage inhibition” value (ERK2) was 67.16%.

In the case of `CC#CC(=O)N1CCC[C@H]1c1nc(-c2ccc(C(=O)Nc3ccccn3)cc2)c2c(N)nccn12` [acalabrutinib], the “Percentage inhibition” value (MER) is reported as -3.37%, the “Percentage inhibition” value (AurC) is reported as 7.21% and the “Percentage inhibition” value (CDK4/CycD3) is reported as -13.28%. For the same molecule, the “Percentage inhibition” value (CDK5/p25) was -19.05%, the “Percentage inhibition” value (NEK9) was -3.18% and the “Percentage inhibition” value (SGK2) was -19.42%. The “Percentage inhibition” value (SRPK1) was -4.73% and the “Percentage inhibition” value (ERK2) was -2.02%.

In the case of `COc1ccc(F)cc1C(=O)NCc1ccc(-c2nn([C@@H](C)C(F)(F)F)c(N)c2C(N)=O)cc1` [pirtobrutinib], the “Percentage inhibition” value (MER) is reported as -2.75%, the “Percentage inhibition” value (AurC) is reported as 39.97% and the “Percentage inhibition” value (CDK4/CycD3) is reported as 4.05%. For the same molecule, the “Percentage inhibition” value (CDK5/p25) was 4.92%, the “Percentage inhibition” value (NEK9) was -2.20% and the “Percentage inhibition” value (SGK2) was -0.16%. For the same molecule, the “Percentage inhibition” value (SRPK1) was 8.97% and the “Percentage inhibition” value (ERK2) was 6.64%.

For `C=CC(=O)N1CCC([C@@H]2CCNc3c(C(N)=O)c(-c4ccc(Oc5ccccc5)cc4)nn32)CC1` [zanubrutinib], the “Percentage inhibition” value (MER) was -2.35% and the “Percentage inhibition” value (AurC) was -0.85%.

For `C=CC(=O)N1CCC[C@@H](n2nc(-c3ccc(Oc4ccccc4)cc3)c3c(N)ncnc32)C1` [ibrutinib], the “Percentage inhibition” value (AurC) was 6.95%, the “Percentage inhibition” value (CDK4/CycD3) was 4.00% and the “Percentage inhibition” value (CDK5/p25) was -5.18%. For the same molecule, the “Percentage inhibition” value (NEK9) was -3.28%, the “Percentage inhibition” value (SRPK1) was 1.20% and the “Percentage inhibition” value (ERK2) was -6.90%.

— publication PMC12586182 (Frontiers in Oncology, 2025)
